“Also recorded” adds a separate entry of the source.
How the values were obtained:
[1] = biological target: T1, UGT2B15 (Homo sapiens, UniProt P54855); test: Inhibition of 4-MU glucuronidation by recombinant UGT2B15; details: recombinant UGT2B15, pH 7.4, probe 4-MU
T1 sequence (P54855 24-530): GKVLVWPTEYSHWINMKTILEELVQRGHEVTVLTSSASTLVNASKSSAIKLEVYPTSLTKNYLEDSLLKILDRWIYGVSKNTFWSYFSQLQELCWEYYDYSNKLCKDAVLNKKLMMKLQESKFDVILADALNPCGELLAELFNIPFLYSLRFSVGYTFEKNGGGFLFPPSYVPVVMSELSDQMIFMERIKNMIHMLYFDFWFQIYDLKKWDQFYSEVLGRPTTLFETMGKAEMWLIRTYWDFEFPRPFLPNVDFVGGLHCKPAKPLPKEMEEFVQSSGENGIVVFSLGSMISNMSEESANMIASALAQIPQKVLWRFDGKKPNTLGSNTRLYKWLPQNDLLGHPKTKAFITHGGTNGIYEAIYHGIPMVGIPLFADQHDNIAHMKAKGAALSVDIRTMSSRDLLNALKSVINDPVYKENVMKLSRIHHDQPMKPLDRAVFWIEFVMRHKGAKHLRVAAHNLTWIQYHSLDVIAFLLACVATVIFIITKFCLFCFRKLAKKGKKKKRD

[2] = biological target: T2, UGT1A7 (Homo sapiens, UniProt Q9HAW7); test: Inhibition of 4-MU glucuronidation by recombinant UGT1A7; details: for activity at 30 min, 100 µM: human, recombinant UGT1A7, pH 7.4, probe 4-MU
T2 sequence (Q9HAW7 26-530): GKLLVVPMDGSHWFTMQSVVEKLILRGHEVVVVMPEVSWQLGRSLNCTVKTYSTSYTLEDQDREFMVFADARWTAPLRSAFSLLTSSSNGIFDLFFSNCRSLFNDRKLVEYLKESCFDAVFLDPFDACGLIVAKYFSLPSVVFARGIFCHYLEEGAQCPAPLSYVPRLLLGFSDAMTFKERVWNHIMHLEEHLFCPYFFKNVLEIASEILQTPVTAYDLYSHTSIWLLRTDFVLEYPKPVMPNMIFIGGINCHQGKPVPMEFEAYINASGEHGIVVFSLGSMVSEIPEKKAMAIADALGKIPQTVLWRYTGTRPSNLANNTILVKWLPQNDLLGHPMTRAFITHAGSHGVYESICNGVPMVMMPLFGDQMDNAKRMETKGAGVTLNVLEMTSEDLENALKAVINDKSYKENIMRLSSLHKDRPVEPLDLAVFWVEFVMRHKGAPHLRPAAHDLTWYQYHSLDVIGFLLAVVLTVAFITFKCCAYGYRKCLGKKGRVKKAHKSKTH

[3] = biological target: T3, UGT1A9 (Homo sapiens, UniProt O60656); test: in vitro; details: recombinant UGT1A9, pH 7.4, probe 4-MU
T3 sequence (O60656 26-530): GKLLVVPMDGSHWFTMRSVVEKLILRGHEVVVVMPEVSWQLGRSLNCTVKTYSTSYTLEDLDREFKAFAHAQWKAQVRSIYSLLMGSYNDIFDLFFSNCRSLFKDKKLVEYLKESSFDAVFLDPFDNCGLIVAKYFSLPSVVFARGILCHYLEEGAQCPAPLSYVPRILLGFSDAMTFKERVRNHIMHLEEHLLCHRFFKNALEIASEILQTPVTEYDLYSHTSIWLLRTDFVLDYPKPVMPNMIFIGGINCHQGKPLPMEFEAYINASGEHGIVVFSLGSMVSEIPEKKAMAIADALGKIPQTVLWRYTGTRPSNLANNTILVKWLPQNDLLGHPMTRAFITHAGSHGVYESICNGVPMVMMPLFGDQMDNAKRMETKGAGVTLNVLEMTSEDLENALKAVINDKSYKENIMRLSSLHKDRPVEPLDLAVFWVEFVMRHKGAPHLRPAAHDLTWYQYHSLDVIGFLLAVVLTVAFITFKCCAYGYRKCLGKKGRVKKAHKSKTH

[4] = biological target: T4, UGT2B17 (Homo sapiens, UniProt O75795); test: Inhibition of 4-MU glucuronidation by recombinant UGT2B17; details: recombinant UGT2B17, pH 7.4, probe 4-MU
T4 sequence (O75795 24-530): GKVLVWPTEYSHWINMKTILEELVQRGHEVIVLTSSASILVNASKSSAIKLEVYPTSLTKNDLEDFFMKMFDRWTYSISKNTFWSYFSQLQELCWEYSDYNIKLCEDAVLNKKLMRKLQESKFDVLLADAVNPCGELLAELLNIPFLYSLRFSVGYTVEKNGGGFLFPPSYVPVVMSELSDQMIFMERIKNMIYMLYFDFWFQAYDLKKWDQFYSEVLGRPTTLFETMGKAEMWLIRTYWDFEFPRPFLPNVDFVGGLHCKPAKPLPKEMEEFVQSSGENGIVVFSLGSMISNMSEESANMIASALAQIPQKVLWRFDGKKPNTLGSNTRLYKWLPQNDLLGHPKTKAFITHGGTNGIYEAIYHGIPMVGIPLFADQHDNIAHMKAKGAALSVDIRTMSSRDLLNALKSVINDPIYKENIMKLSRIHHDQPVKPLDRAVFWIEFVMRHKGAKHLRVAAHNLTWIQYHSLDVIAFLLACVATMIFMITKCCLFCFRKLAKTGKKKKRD

[5] = biological target: T5, UGT2B4 (Homo sapiens, UniProt P06133); test: Inhibition of 4-MU glucuronidation by recombinant UGT2B4; format: in vitro ADME; details: recombinant UGT2B4, pH 7.4, probe 4-MU, 100 μM inhibitor, 4-MU substrate, read-out: Remaining activities (%) of UGT2B4
T5 construct: purchased BD Gentest (Woburn, MA); host or cells: baculovirus-infected insect cells
T5 sequence (P06133 24-528): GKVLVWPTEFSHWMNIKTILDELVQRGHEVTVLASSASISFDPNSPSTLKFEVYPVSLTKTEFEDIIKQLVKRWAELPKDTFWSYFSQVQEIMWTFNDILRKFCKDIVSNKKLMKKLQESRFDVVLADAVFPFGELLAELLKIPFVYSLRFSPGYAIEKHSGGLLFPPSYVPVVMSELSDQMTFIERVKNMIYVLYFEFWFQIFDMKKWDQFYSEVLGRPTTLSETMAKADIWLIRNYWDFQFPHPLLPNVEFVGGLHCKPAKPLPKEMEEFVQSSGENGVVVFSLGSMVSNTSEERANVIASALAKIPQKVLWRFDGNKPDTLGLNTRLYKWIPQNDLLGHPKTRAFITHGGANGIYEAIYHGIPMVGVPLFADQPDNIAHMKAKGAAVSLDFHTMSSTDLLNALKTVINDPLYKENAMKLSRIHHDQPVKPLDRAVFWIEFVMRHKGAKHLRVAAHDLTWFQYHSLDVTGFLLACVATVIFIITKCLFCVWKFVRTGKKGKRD

Compound | activity at 120 min, 100 µM [1] | IC50 [2] | activity at 30 min, 100 µM [2] | activity at 30 min, 100 µM [3] | activity at 120 min, 100 µM [4] | activity at 120 min, 100 µM [5] | inhibition type, UGT1A7 ([2]; 4-MU substrate)
CNC(=O)c1ccccc1Sc1ccc2c(/C=C/c3ccccn3)n[nH]c2c1 [Axitinib, axitinib] | 49.3 ± 5.2% | 3.3 ± 0.7 µM | 25 ± 2.5% | 44.8 ± 0.2% | 55.9 ± 0.3% | 42.1 ± 1.6% | 
CS(=O)(=O)CCNCc1ccc(-c2ccc3ncnc(Nc4ccc(OCc5cccc(F)c5)c(Cl)c4)c3c2)o1 [Lapatinib, lapatinib] | 110 ± 3.1% |  | 37.7 ± 9.3% | 51.1 ± 7.9% | 94.8 ± 5.7% | 105.1 ± 0.2% | non-competitive; also recorded: noncompetitive
COc1cc2c(Nc3ccc(Br)cc3F)ncnc2cc1OCC1CCN(C)CC1 [Vandetanib, vandetanib] | 79.2 ± 1.4% | 38.9 ± 4.3 µM | 22.7 ± 2.7% | 14.1 ± 4.7% | 69.7 ± 3.1% | 80.8 ± 6.6% | 

From publication PMC4672351, “Drug-Drug Interaction Potentials of Tyrosine Kinase Inhibitors via Inhibition of UDP-Glucuronosyltransferases” (Scientific Reports, 2015)
